The source of these data is patent US20120289523A1, “PYRROLO [3,2-E] [1,2,4] TRIAZOLO [1,5-A] PYRIMIDINES DERIVATIVES AS INHIBITORS OF MICROGLIA ACTIVATION” (BTG INTERNATIONAL LIMITED, priority 2009, published 2012).

SMILES strings stand for the structures. A value given as a limit tells only on which side of the number the result lay.

Data set [1] deals with Mouse BALB/c monocyte macrophages, J774.2. The data set can be described thus: Inhibition of β-amyloid induced activation: nitric oxide release (Griess assay). The class given is cell-based. As to conditions: 20 μM Aβ(1-42), 50 U/ml Interferon gamma, 24 hours. The protocol: (§1) Mouse BALB/c monocyte macrophages, J774.2, {ECACC 85011428} were grown and sub-cultured in cell media (DMEM containing 10% FBS, 1% L-glutamine and 1% penicillin/streptomycin). The J774 cells were plated at 100,000 cells/well in 50 μl cell media on 96 well plates and placed in a 37° C., 5% CO2 incubator overnight prior to experiments.
(§2) The addition of Aβ(1-42) and compounds to the J774 cells was performed using a Biotek precision 2000 liquid handling instrument. 3 μl of compound in DMSO ranging from 8 μM to 6 mM were pipetted into a “daughter plate” containing 294 μl of cell media and mixed thoroughly. 3 μl of Aβ(1-42) in DMSO at 4 mM was then added to the “daughter plate” and mixed thoroughly. 50 μl was then removed from the “daughter plate” and added to the plated J774 cells. The final concentrations in the wells containing 100 μl cell media were 20 μM Aβ(1-42), the compounds ranged from ˜40 nM to 30 μM in 1% DMSO and also in the presence of 50 U/ml Interferon gamma. The plates were incubated for 24 hours in a 37° C., 5% CO2 incubator. After 24 hours incubation the media from the wells were collected and stored at −20° C. until required for testing.
The nitric oxide levels in the media were tested using the Griess assay (Promega G2930) using the manufacturer's instructions.
On the technique in general: Griess reagent forms a coloured azo dye with nitrite.

Data set [2] shares this test system. Description: Inhibition of β-amyloid induced activation: TNF-alpha levels in media (ELISA or Meso Scale Discovery kit). It counts as cell-based. As to conditions: J774.2, 24 h, J774.2 cells, 20 μM Aβ(1-42), read-out: IC50 (μM) TNF-α. The protocol: as §1, §2
The TNF-alpha levels in the media were tested using a TNF-alpha ELISA (R&D Systems MTA00) or Meso Scale Discovery MS6000 Mouse Proinflammatory-7 kit, using the manufacturers instructions.
A general note: An ELISA detects its analyte on a solid surface through an enzyme-linked reagent.

Data set [3] can be described thus: Cell permeability of compounds (Caco-2 or TC7 monolayers). The note with it: human, Caco-2, apical-to-basolateral, 60 minutes at 37° C., read-out: Cell Perm A-B. It counts as in vitro ADME, human. The method, then: (§3) These were measured using the accepted in vitro intestinal epithelial model using either the human colon adeno-carcinoma cell line Caco-2 or a sub-clone of this cell line, TC7. The apparent permeability coefficient (Papp) was determined in the apical-to-basolateral (A-B) and the B-A directions across cell monolayers cultured on 96-well polycarbonate membrane filters. Compounds were tested at 10 μM with a final DMSO concentration of 1%. The assay plate was incubated for 60 minutes at 37° C. with gentle shaking. Samples were taken at time zero from the donor side and at the end of the incubation from both donor and receiver sides. Samples were analysed by HPLC-MS/MS. The Papp value (expressed as 10^−6 cm/sec) was then calculated based on the appearance rate of the compound in the receiver side (Gres, M. C. et al. (1998) Pharm. Res., 15, 726-733).
(Caco-2 monolayers are a common model of the intestinal barrier.)

Data set [4] concerns human colon adeno-carcinoma cell line Caco-2 or sub-clone TC7. Described as above. The class given is in vitro ADME. The note with it: 10 μM; for Cell Perm A-B/B-A: ratio of Papp A-B to B-A, 60 minutes. The protocol: as §3
Data set [5] can be described thus: Metabolism of compounds, human liver microsomes. As to conditions: 1 μM compound, 0.3 mg/ml protein, 60 minutes at 37° C.; for half-life at 1 μM: human, pooled liver microsomes, read-out: Microsomes t1/2 (mins) Human. The class given is in vitro ADME. The method, then: (§4) These were measured by incubating 1 μM test compound with pooled liver microsomes (0.3 mg/ml) protein for 60 minutes at 37° C. Samples were analysed by HPLC-MS/MS (Kuhnz, W. and Gieschen, H. (1998) Drug Metab. Dispos., 26, 1120-1127).

Data set [6] can be described thus: Metabolism of compounds, rat liver microsomes. The class given is in vitro ADME. As to conditions: 1 μM compound, 0.3 mg/ml protein, 60 minutes at 37° C.; for half-life at 1 μM: rat, pooled liver microsomes, read-out: Microsomes t1/2 (mins) Rat. The method, then: as §4
Data set [7] deals with T1, CYP1A2 (Homo sapiens, UniProt P05177).
T1 construct: purchased Promega Corporation
T1 sequence (P05177 1-516): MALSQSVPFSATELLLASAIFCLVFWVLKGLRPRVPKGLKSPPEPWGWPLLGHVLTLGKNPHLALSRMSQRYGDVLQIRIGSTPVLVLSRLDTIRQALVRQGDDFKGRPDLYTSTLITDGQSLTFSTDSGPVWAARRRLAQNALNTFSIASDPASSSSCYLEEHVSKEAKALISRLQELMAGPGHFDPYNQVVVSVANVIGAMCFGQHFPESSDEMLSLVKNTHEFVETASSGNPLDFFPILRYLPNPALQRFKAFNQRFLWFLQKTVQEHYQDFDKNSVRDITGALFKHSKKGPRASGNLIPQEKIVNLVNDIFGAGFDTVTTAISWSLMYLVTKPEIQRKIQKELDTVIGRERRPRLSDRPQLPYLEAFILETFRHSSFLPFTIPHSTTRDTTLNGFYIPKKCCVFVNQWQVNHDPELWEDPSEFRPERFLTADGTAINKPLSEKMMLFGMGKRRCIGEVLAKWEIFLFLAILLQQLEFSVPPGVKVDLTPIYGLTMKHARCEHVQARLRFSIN
The data set can be described thus: Inhibition of cytochrome P450 (P450-Glo) CYP1A2. The note with it: human recombinant enzyme, read-out: CYP450 Inhibition (IC50 microM) 1A2. It counts as biochemical. The method, then:
Tests were carried out using human recombinant enzymes CYP1A2, CYP2C9, CYP2C19, CYP2D6 and CYP3A4 and P450-Glo™ screening system (Promega Corporation). […] A 10-minute pre-incubation was performed. One-half the final volume of the 2×NADPH regeneration system was then added to initiate the CYP reactions, and bring all components to their 1×target concentrations. The plate is incubated at 37° C. for 30 minutes. The luciferin detection reagent was added which stops the CYP reaction and initiates luminescence. The signal was allowed to stabilize for 20 minutes at room temperature and then the luminescence was read. The net CYP-dependent luminescence was calculated by subtracting the average luminescence of the control reactions from the CYP-containing reactions. Changes from the average net signal of untreated CYP reactions for reactions with a test compound reflect the inhibition of CYP activity by this compound.

The target of data set [8] is T2, CYP2C9 (Homo sapiens, UniProt P11712).
T2 construct: purchased Promega Corporation
Description: Inhibition of cytochrome P450 (P450-Glo) CYP2C9. The class given is biochemical. The note with it: human recombinant enzyme, read-out: CYP450 Inhibition (IC50 microM) 2C9. The method, then: (§5) Tests were carried out using human recombinant enzymes CYP1A2, CYP2C9, CYP2C19, CYP2D6 and CYP3A4 and P450-Glo™ screening system (Promega Corporation). Briefly, using a white opaque 96-well plate, one-fourth of the final reaction volume of a 4×cytochrome P450 reaction mixture containing the requisite luminogenic substrate was combined with an equal volume of the test compound (0.03-30 μM) or known inhibitor control at a 4×concentration to give one-half of the final reaction volume. A 10-minute pre-incubation was performed. One-half the final volume of the 2×NADPH regeneration system was then added to initiate the CYP reactions, and bring all components to their 1×target concentrations. The plate is incubated at 37° C. for 30 minutes. The luciferin detection reagent was added which stops the CYP reaction and initiates luminescence. The signal was allowed to stabilize for 20 minutes at room temperature and then the luminescence was read. The net CYP-dependent luminescence was calculated by subtracting the average luminescence of the control reactions from the CYP-containing reactions. Changes from the average net signal of untreated CYP reactions for reactions with a test compound reflect the inhibition of CYP activity by this compound.

Data set [9] has as its target T3, CYP2C19 (Homo sapiens, UniProt P33261).
T3 construct: purchased Promega Corporation
The data set can be described thus: Inhibition of cytochrome P450 (P450-Glo) CYP2C19. It counts as biochemical. The note with it: human recombinant enzyme, read-out: CYP450 Inhibition (IC50 microM) 2C19. The protocol:
as §5

For data set [10], the target named is T4, CYP2D6 (Homo sapiens, UniProt P10635).
T4 construct: purchased Promega Corporation
The data set can be described thus: Inhibition of cytochrome P450 (P450-Glo) CYP2D6. The class given is biochemical. As to conditions: human recombinant enzyme, read-out: CYP450 Inhibition (IC50 microM) 2D6. The protocol:
as §5

For data set [11], the target named is T5, CYP3A4 (Homo sapiens, UniProt P08684).
T5 construct: purchased Promega Corporation
Description: Inhibition of cytochrome P450 (P450-Glo) CYP3A4. The class given is biochemical. As to conditions: human recombinant enzyme, read-out: CYP450 Inhibition (IC50 microM) 3A4. The protocol:
as §5

Setting [12] is: Table 2, J774.2 cells, read-out: IC50 (μM) NO.
Setting [13] is: *Level of TNF for Aβ(1-42) alone: 9699 pg/mL.
The mark [14] stands for this setting: **Level of TNF for Aβ(1-42) alone: 13184 pg/mL.
The mark [15] stands for this setting: Table 1, identification of the active enantiomer, J774.2 cells, read-out: IC50 measured by inhibition of Nitric Oxide release.

T4 sequence (P10635 whole entry): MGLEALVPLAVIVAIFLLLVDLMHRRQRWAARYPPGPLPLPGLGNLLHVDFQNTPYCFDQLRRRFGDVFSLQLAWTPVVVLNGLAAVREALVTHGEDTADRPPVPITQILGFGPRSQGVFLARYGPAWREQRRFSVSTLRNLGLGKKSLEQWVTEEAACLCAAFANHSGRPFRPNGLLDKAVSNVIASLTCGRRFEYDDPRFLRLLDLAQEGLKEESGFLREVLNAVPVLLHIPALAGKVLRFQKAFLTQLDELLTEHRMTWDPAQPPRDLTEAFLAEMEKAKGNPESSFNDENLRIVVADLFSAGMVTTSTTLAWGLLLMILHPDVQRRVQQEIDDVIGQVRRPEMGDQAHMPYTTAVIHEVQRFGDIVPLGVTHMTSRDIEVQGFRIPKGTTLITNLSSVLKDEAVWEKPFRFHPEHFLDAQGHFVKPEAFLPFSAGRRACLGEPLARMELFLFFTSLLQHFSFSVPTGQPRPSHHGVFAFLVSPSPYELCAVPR
T5 sequence (P08684 whole entry): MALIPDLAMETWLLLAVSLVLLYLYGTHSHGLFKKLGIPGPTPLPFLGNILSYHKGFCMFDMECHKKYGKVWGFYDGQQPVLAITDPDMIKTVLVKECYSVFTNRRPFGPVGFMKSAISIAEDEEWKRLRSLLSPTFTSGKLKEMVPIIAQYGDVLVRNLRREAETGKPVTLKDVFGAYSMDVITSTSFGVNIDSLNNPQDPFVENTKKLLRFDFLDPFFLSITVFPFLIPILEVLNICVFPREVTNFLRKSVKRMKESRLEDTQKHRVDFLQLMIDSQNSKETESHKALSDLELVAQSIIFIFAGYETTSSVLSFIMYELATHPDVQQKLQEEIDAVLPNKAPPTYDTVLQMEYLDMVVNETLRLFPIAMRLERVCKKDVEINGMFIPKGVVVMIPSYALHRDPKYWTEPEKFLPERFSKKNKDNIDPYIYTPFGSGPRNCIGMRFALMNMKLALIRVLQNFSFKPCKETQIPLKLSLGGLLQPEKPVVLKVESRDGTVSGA
T3 sequence (P33261 whole entry): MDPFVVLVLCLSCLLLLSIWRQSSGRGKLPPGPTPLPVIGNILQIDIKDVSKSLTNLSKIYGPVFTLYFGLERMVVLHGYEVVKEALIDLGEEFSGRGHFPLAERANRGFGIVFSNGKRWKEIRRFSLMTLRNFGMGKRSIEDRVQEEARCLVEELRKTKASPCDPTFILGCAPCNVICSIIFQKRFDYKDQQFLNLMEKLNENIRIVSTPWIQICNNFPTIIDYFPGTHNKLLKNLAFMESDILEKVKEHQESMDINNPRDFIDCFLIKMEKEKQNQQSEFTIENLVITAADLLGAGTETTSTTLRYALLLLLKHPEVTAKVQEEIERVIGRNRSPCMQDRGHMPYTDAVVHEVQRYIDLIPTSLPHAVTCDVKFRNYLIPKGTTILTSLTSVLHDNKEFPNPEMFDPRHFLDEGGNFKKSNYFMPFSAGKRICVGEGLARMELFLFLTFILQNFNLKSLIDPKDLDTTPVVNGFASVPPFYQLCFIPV
T2 sequence (P11712 whole entry): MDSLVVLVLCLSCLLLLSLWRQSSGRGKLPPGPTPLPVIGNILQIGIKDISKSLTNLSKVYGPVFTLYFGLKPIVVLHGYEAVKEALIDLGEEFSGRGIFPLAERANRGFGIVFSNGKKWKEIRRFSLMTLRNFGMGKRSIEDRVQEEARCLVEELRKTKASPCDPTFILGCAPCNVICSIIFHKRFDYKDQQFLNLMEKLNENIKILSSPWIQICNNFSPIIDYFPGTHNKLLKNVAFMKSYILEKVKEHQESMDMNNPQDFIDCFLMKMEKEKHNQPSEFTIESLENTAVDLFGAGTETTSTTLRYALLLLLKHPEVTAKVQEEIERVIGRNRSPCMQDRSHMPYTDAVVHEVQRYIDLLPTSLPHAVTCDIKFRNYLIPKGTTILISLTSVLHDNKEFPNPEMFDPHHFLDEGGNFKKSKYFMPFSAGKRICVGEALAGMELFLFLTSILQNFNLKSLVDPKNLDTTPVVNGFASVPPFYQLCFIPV

As usually defined, the IC50 is the concentration that gives 50% inhibition. As a reminder, the melting point is the temperature, or range, at which the solid turns liquid. `Cc1nc2ncnn2c2c1CCN2[C@H](c1ccccc1)C(F)(F)F` [Compound 1, (R)-5-Methyl-8-[2,2,2-trifluoro-1-phenylethyl]-7,8-dihydro-6H-pyrrolo[3,2e][1,2,4]-triazolo[1,5-a]pyrimidine] came in with a melting point of 153 to 155 °C. Further, the IC50 in data set [1] (setting [12]) is 1.1 µM. In addition, the 50% inhibitory concentration (IC50) in data set [2] (setting [13]) came to 1.44 µM. The Papp A→B at 60 min, 10 μM in [3] was 350 nm/s. Moreover, in [4], the “Cell Perm A-B/B-A” value is 0.55. In addition, the half-life at 1 μM in [5] was above 60 min. Further, the half-life at 1 μM in data set [6] amounted to 35 min. In addition, in data set [7], the IC50 is above 20 µM. Moreover, the IC50 in data set [8] worked out at 14 µM. Further, the concentration for half-maximal inhibition (IC50) in data set [9] is above 10 µM. The half-inhibitory concentration (IC50) in data set [10] was above 20 µM. Moreover, the 50% inhibitory concentration (IC50) in data set [11] turned out to be 8 µM.

Take `Cc1nc2ncnn2c2c1CCN2[C@@H](C)c1ccc(F)cc1` [Compound 7, (S)-8-[1-(4-Fluorophenyl)ethyl]-5-methyl-7,8-dihydro-6H-pyrrolo [3,2e][1,2,4]triazolo[1,5-a]pyrimidine]: in [4] (apical-to-basolateral, 60 minutes at 37° C.), the “Cell Perm (Papp 10^−6 cm s^−1) A-B” value was 33 10^−6 cm s^−1. The “Cell Perm A-B/B-A” value in data set [4] was found to be 0.85. Besides, the “Microsomes t1/2 (mins) Human” value in data set [5] was above 60 min. Besides, the “Microsomes t1/2 (mins) Rat” value in data set [6] came to 15 min. Moreover, the IC50 in data set [7] is 99 µM; in [8], 27 µM; in data set [9], 7 µM; in data set [10] it was 15 µM; in [11], 0.83 µM.

As to `Cc1nc2ncnn2c2c1CCN2[C@H](c1ccc(F)cc1)C(F)(F)F` [Compound 2, (R)-5-Methyl-8-[2,2,2-trifluoro-1-(4-fluorophenyl)ethyl]-7,8-dihydro-6H-pyrrolo[3,2e][1,2,4]triazolo[1,5-a]pyrimidine], the half-inhibitory concentration (IC50) in data set [1] (setting [12]) was 0.8 µM; in data set [2] (setting [14]), 3.2 µM; in data set [2] (setting [13]), 0.91 µM; in data set [7] it was above 20 µM; in data set [8], above 20 µM; in data set [9], above 20 µM. Also, the IC50 in data set [10] is above 20 µM; in data set [11], 19 µM. The Papp A→B at 60 min, 10 μM in [3] is 720 nm/s. Further, the “Cell Perm A-B/B-A” value in [4] was 0.37. For the same molecule, the results for the half-life at 1 μM in data set [5] and in data set [6] were above 60 min and 60 min, respectively.

`Cc1nc2ncnn2c2c1CCN2[C@@H](C)c1ccccc1` [Compound 5, (S)-8-[1-(Phenyl)ethyl]-5-methyl-7,8-dihydro-6H-pyrrolo[3,2e][1,2,4]triazolo[1,5-a]pyrimidine]: the IC50 was 1.5 µM in data set [1] (setting [15]); 1.5 µM in data set [1] (setting [12]); 2.3 µM in data set [2] (setting [14]); above 100 µM in data set [7]; above 100 µM in data set [8]; 13 µM in [9]. In addition, the results for the half-inhibitory concentration (IC50) in data set [10] and in [11] were 21 µM and 0.53 µM, respectively. The Papp A→B at 60 min, 10 μM in [3] turned out to be 350 nm/s. Further, in [4], the “Cell Perm A-B/B-A” value was determined as 0.85. For the same molecule, the half-life at 1 μM in [5] was above 60 min; in data set [6], 15 min.

Turning to `Cc1nc2ncnn2c2c1CCN2C(C)c1ccccc1` (single isomer, unassigned) [Compound 4], the IC50 came out at 3 µM in data set [1] (setting [15]), 3 µM in data set [1] (setting [12]) and 5.5 µM in data set [2] (setting [14]).

With `Cc1nc2ncnn2c2c1CCN2[C@H](C)c1ccccc1` [Compound 6, (R)-8-[1-(Phenyl)ethyl]-5-methyl-7,8-dihydro-6H-pyrrolo[3,2e][1,2,4]triazolo[1,5-a]pyrimidine], in data set [1] (setting [15]), the half-maximal inhibitory concentration (IC50) was 30 µM.
